Article PMC6222558, “Synthesis and Evolution of Berberine Derivatives as a New Class of Antiviral Agents against Enterovirus 71 through the MEK/ERK Pathway and Autophagy” (Molecules : A Journal of Synthetic Chemistry and Natural …, 2018)

Assays:
[1] = system: EV71 SHZH98 strain (genotype C4); assay: CPE inhibition assay for anti-EV71, SHZH98 strain; assay type: cell-based, enterovirus 71 (EV71); conditions: Enterovirus A, EV71; Vero cells; CPE; calculated on the organic part; n = 3; read-out: SHZH98 Strain IC50
Description: (§1) Thus, all newly synthesized BBR analogues were screened for their anti-EV71 potencies in African green monkey kidney (Vero) cells taking BBR as the positive control. EV71 strains used in the present study include different genotype strains, such as H strain (VR-1432, genotype C2), BrCr strain (VR-1775, genotype A), and JS-52 and SHZH98 (genotype C4). The potency against EV71 strains above mentioned of each tested compound was evaluated by the combination of its IC50 and selectivity index (SI) value as the important therapeutic indication.
(§2) Vero cells were purchased from the American Type Culture Collection (ATCC, […], MD, USA), and were cultured in Minimum Essential Medium (MEM) supplemented with 10% fetal bovine serum (FBS) (GIBCO, Grand Island, NY, USA) and antibiotics (100 U/mL penicillin and […] streptomycin) at 37 °C in a 5% CO2 incubator. EV71 strain SHZH98 isolated from the throat swab sample of an HFMD case occurring in 1998 in China was kindly provided by Dr. Qi Jin (Institute of Pathogen Biology, Chinese Academy of Medical Science and Peking Union Medical School, Beijing, China), and JS-52 strain was a kind gift from Dr. Xiangzhong Ye (Beijing Wantai Biological Pharmacy Enterprise Co., Ltd., Beijing, China). The EV71 BrCr and H strains were purchased from the ATCC. All of EV71 strains were passaged in Vero cells.
(§3) The anti-EV71 activities of all tested compounds were detected by the virus-induced CPE assay. Briefly, cells (3 × 10^4 cells/well) were plated into 96-well culture plates and incubated for 16 h. Then, remove the medium and infected cells with EV71 of 100 × TCID50 (50% tissue culture infective doses) in serum-free medium for 1 h at 37 °C. After that, the unbound viruses were removed and various concentrations of tested compounds were supplemented for incubation of another 72 h. […] TC50 defined as the concentration that leads to the 50% of CPE which determined by the same method in 72 h. In addition, the cells were stained the cells were colored with 0.5% crystal violet in 20% ethanol for 15 min at room temperature and the cells were imaged after rinsed with PBS.

[2] = system: EV71 JS-52 strain (genotype C4); assay: CPE inhibition assay for anti-EV71, JS-52 strain; assay type: cell-based, enterovirus 71 (EV71); conditions: Enterovirus A, EV71; Vero cells; CPE; calculated on the organic part; n = 3; read-out: JS-52 Strain IC50
Description: as §1, §2, §3

[3] = system: EV71 H strain (VR-1432, genotype C2); assay: CPE inhibition assay for anti-EV71, H strain; assay type: cell-based, enterovirus 71 (EV71); conditions: Vero cells; for IC50: Enterovirus A, EV71, CPE, calculated on the organic part, n = 3, read-out: H Strain IC50; for anti-EV71 activity against H strain, in words: compared with BBR
Description: as §1, §2, §3

[4] = system: EV71 BrCr strain (VR-1775, genotype A); assay: CPE inhibition assay for anti-EV71, BrCr strain; assay type: cell-based, enterovirus 71 (EV71); conditions: Enterovirus A, EV71; Vero cells; CPE; calculated on the organic part; n = 3; read-out: BrCr Strain IC50
Description: as §1, §2, §3

Vero cells = assay: Cytotoxicity assay (CCK) in Vero cells; assay type: cell-based, African green monkey; conditions: African green monkey, 48 h
Description: as §2
Cytotoxicity of all target compounds in Vero cells was analyzed by CCK (TransGen Biotech, Beijing, China) assay. In brief, cells in exponential phase (3 × 10^4 cells/well) were seeded into 96-well culture plates and incubated overnight. Then, the medium was removed and different concentrations of all target compounds were applied in duple. After 48 h incubation, the cytotoxicity of all target compounds was determined by CCK assay. The signals were read at 450 nm on Enspire (Perkin Elmer, Waltham, MA, USA). The TC50 was defined as the concentration that inhibits 50% cellular growth in comparison with the controls. It is calculated by the Reed and Muench method.

Compound	IC50 [1]	IC50 [2]	IC50 [3]	IC50 [4]	TC50 (median toxic concentration) (Vero cells)	anti-EV71 activity against H strain, in words [3]
CCOC(=O)COc1c(OC)ccc2cc3[n+](cc12)CCc1cc2c(cc1-3)OCO2 [2a, 2,3-Methylenedioxy-9-ethyloxyformylmethylenoxy-10-methoxy protoberberine chloride]	60.4 µM	45.5 µM	48.3 µM	32.3 µM	223 µM	
COc1ccc2cc3[n+](cc2c1OCC(=O)OCC(C)C)CCc1cc2c(cc1-3)OCO2 [2b, 2,3-Methylenedioxy-9-isobutyloxyformylmethylenoxy-10-methoxy protoberberine chloride]	5.46 µM	5.73 µM	> 5.34 µM	2.04 µM	22.3 µM	
COc1ccc2cc3[n+](cc2c1OCC(=O)C(C)(C)C)CCc1cc2c(cc1-3)OCO2 [2c, 2,3-Methylenedioxy-9-pivalylmethylenoxy-10-methoxy protoberberine chloride]	8.59 µM	7.26 µM	13.8 µM	4.26 µM	27.9 µM	
COc1ccc2cc3[n+](cc2c1OCC(=O)O)CCc1cc2c(cc1-3)OCO2 [2d-a, 2,3-Methylenedioxy-9-carboxylmethylenoxy-10-methoxy protoberberine chloride]	> 145 µM	145 µM	> 145 µM	145 µM	437 µM	complete loss on the antivirus potency
COc1ccc2cc3[n+](cc2c1OCC(=O)c1ccc(C)cc1)CCc1cc2c(cc1-3)OCO2 [2e, 2,3-Methylenedioxy-9-p-tolylformylmethylenoxy-10-methoxy protoberberine chloride]	2.84 µM	2.67 µM	> 5.31 µM	2.23 µM	14.4 µM	
COc1cccc(C(=O)COc2c(OC)ccc3cc4[n+](cc23)CCc2cc3c(cc2-4)OCO3)c1 [2f, 2,3-Methylenedioxy-9-m-methoxyphenylformylmethylenoxy-10-methoxy protoberberine chloride]	1.85 µM	1.61 µM	> 5.33 µM	2.21 µM	9.22 µM	
COc1ccc2cc3[n+](cc2c1OCC(=O)c1ccc(C(F)(F)F)cc1)CCc1cc2c(cc1-3)OCO2 [2g, 2,3-Methylenedioxy-9-p-trifloromethylphenylformylmethylenoxy-10-methoxy protoberberine chloride]	12.3 µM	11.9 µM	15.8 µM	10.6 µM	54.9 µM	
COc1ccc2cc3[n+](cc2c1OC(=O)OCc1ccccc1)CCc1cc2c(cc1-3)OCO2 [2h, 2,3-Methylenedioxy-9-benzyloxyformyloxy-10-methoxy protoberberine chloride]	> 47.9 µM	> 47.9 µM	> 47.9 µM	47.9 µM	124 µM	obvious decreased activity
CCOC(=O)Oc1c(OC)ccc2cc3[n+](cc12)CCc1cc2c(cc1-3)OCO2 [2i, 2,3-Methylenedioxy-9-ethyloxyformyloxy-10-methoxy protoberberine chloride]	45.7 µM	43.6 µM	31.1 µM	33.6 µM	167 µM	obvious decreased activity
CCOC(=O)COc1c(OC)ccc2cc3[n+](cc12)CCc1cc(OC)c(OC)cc1-3 [4a, 2,3,10-Trimethoxy-9-ethyloxyformylmethylenoxy protoberberine chloride]	> 144 µM	> 144 µM	144 µM	> 144 µM	434 µM	
COc1cc2c(cc1OC)-c1cc3ccc(OC)c(OCC(=O)C(C)(C)C)c3c[n+]1CC2 [4b, 2,3,10-Trimethoxy-9-pivalylmethylenoxy protoberberine chloride]	> 144 µM	109 µM	> 144 µM	144 µM	333 µM	
COc1cc2c(cc1OC)-c1cc3ccc(OC)c(OCC(=O)OCc4ccccc4)c3c[n+]1CC2 [4c, 2,3,10-Trimethoxy-9-benzyloxyformylmethylenoxy protoberberine chloride]	> 143 µM	99.3 µM	> 143 µM	81.1 µM	452 µM	
COc1cc2c(cc1OC)-c1cc3ccc(OC)c(OCC(=O)c4ccc(C)cc4)c3c[n+]1CC2 [4d, 2,3,10-Trimethoxy-9-p-tolylformylmethylenoxy protoberberine chloride]	> 47.8 µM	44.2 µM	> 15.9 µM	44.2 µM	50.0 µM	
COc1cccc(C(=O)COc2c(OC)ccc3cc4[n+](cc23)CCc2cc(OC)c(OC)cc2-4)c1 [4e, 2,3,10-Trimethoxy-9-m-methoxyphenylformylmethylenoxy protoberberine chloride]	27.6 µM	19.4 µM	13.6 µM	17.1 µM	143 µM	comparable activity to BBR
COc1cc2c(cc1OC)-c1cc3ccc(OC)c(OCC(=O)c4ccc(C(F)(F)F)cc4)c3c[n+]1CC2 [4f, 2,3,10-Trimethoxy-9-p-trifloromethylphenylformylmethylenoxy protoberberine chloride]	82.2 µM	54.2 µM	82.2 µM	66 µM	306 µM	
COc1cc2c(cc1OC)-c1cc3ccc(OC)c(OC(=O)OCc4ccccc4)c3c[n+]1CC2 [4g, 2,3,10-Trimethoxy-9-benzyloxyformyloxy protoberberine chloride]	> 143 µM	129 µM	> 143 µM	> 143 µM	351 µM	
CCOC(=O)COc1cc2c(cc1OC)-c1cc3ccc(OC)c(OC)c3c[n+]1CC2 [5a, 2,9,10-Trimethoxy-3-ethyloxyformylmethylenoxy protoberberine chloride]	144 µM	109 µM	130 µM	125 µM	250 µM	
COc1cc2c(cc1OCC(=O)C(C)(C)C)CC[n+]1cc3c(OC)c(OC)ccc3cc1-2 [5b, 2,9,10-Trimethoxy-3-pivalylmethylenoxy protoberberine chloride]	69.3 µM	34.2 µM	41.3 µM	34.2 µM	83.3 µM	
COc1cc2c(cc1OCC(=O)OCc1ccccc1)CC[n+]1cc3c(OC)c(OC)ccc3cc1-2 [5c, 2,9,10-Trimethoxy-3-benzyloxyformylmethylenoxy protoberberine chloride]	123 µM	101 µM	93.7 µM	44.1 µM	248 µM	
COc1cc2c(cc1OCC(=O)c1ccc(C)cc1)CC[n+]1cc3c(OC)c(OC)ccc3cc1-2 [5d, 2,9,10-Trimethoxy-3-p-methylphenylformylmethylenoxy protoberberine chloride]	12 µM	9.01 µM	> 15.9 µM	> 15.9 µM	41.0 µM	
